Measured values as given in patent US11684660B2, “Human PD1 peptide vaccines and uses thereof” (OHIO STATE INNOVATION FOUNDATION, priority 2017, dated 2023).
No end group written: not given here.

Legend:
[1] = target: T1, extracellular domain of human PD-L1 (hPD-L1) (Homo sapiens, UniProt Q9NZQ7); assay: BIACORE SPR binding to immobilized rhPD-L1; conditions: 1 μM peptide; for SPR response of peptide binding to immobilized rhPD-L1: 1 min at 10 μl/min
T1 construct: Recombinant hPD-L1 ectodomain was immobilized onto the gold surface of a CM5 sensor chip
T1 sequence (Q9NZQ7 19-238 limits assumed): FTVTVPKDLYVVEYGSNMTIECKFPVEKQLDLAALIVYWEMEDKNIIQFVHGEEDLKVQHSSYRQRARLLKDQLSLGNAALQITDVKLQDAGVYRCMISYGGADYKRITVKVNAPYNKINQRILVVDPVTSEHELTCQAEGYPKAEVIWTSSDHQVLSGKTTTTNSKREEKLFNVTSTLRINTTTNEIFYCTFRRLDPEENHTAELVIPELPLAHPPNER
Protocol: To test the activity of all the selected peptides, surface plasmon resonance (SPR) spectroscopy (BIACORE™ T200, at […]) was used to measure their binding affinities to the extracellular domain of human PD-L1 (hPD-L1). Recombinant hPD-L1 ectodomain was immobilized onto the gold surface of a CM5 sensor chip by direct amine coupling.
(§1) 1 μM BSA was used as the negative control. The chip was regenerated by 10 mM Glycine-HCl, pH 2.5(FIG. 3E).
(§2) 1 μM of various PD-1 peptides were injected over the chip for 1 min at 10 μl/min followed by 1 min dissociation and then 1 min regeneration with 10 mM Glycine-HCl, pH 2.5 for each run.

[2] = test system: Nivolumab; assay: BIACORE SPR binding to immobilized Nivolumab; conditions: 1 μM peptide; for SPR response of peptide binding to immobilized Nivolumab: 1 min at 10 μl/min
Protocol: as §1, §2

[3] = test system: murine colon carcinoma CT26 tumor cells; assay: CT26 tumor challenge in Balb/c mice immunized with PD-1 constructs; type: in vivo; conditions: for inhibition of tumor growth: Day 14, FIG. 15; for difference in tumor size distribution versus controls: exact Wilcoxon rank-sum test, two-sided, unadjusted; for median tumor size LWH, Day 14 / median tumor size LWW, Day 14 / median terminal tumor weight / median tumor size LWH, Day 19 / median tumor size LWW, Day 19: 5 mice/group; for median tumor size LWH, Day 14: ½*length*width*height; for median tumor size LWW, Day 14: ½*length*width*width; for median terminal tumor weight: end of study
Protocol: Immunocompetent Balb/c mice of 6-8 weeks of age were purchased from Charles River Laboratories, Wilmington, Mass. and housed in The Ohio State University's University Laboratory Animal Resources (ULAR) facilitates. Isoflurane was used to anaesthetize the animals before cells injection and termination. Pre-immune sera samples were taken from the mice then they were immunized with 100 μg of peptide emulsified in Montanide ISA 720 (Seppic, Paris, France) and nor-MDP adjuvant (N-acetyl-glucosamine-3 yl-acetyl L-alanyl-D-isoglutamine). Mice received booster immunizations 3 and 6 weeks after the first. Several test sera samples were taken from the mice (FIG. 8).
10 days after the second boost, mice were inoculated with […] murine colon carcinoma CT26 tumor cells subcutaneous on the right flank. Tumor growth was monitored three times a week and sera samples were taken weekly and upon sacrifice of the animal. Control mice on day 0 were engrated with 1×10^5 CT26 tumor cells subcutaneous and received. The animals received 150 μg injections of anti-mouse antibodies directed against PD-1. Mice were monitored and scored for the formation of palpable tumors twice weekly and sacrificed if tumors became necrotic or exceeded the predetermined size of 2,000 mm3. Tumor diameters were measured twice a week. Tumor size was calculated according to the formula: V=[(length ×width2)/2]. Tumor volumes were measured in cubic millimeters with calipers and calculated with the following formula: A×B2×0.5, where A is the largest diameter, and B is the smallest diameter. All experiments were performed in accordance with the U.S. Public Health Service Policy on Humane Care and Use of Laboratory Animals and approved by the Ohio State University Institutional Animals Care and Use Committee and detailed in the accepted protocol
To assess performance of 4 different vaccine treatments on tumor growth, tumor size was measured periodically in mice, and the results were compared to those of positive and negative controls. There were 5 mice in each treatment group, each receiving the assigned MVF-peptide and then being inoculated with 1e5 CT26 (colon) tumor cells 10 days after the final boost of the treatment. Day 14 was considered the primary time point of interest, as the investigators believed waiting until day 19 allowed the tumors too much time to grow, resulting in similar sizes at that point of the experiment. Tumor size was measured in three ways: LWW (½*length*width*width) at all time points, LWH (½*length*width*height) at all time points, and terminal tumor weight at the end of the study. The mice treated with MVF-PD-a(45), group C, were sacrificed before day 19 due to the death of one mouse, so the comparisons can only be made between tumor size at day 14. Tumor size is in units of mm3 for LWW and LWH and grams for terminal tumor weight.
Due to small sample sizes in each group and inability to assume normality, the exact Wilcoxon rank-sum test was used to check for systematic differences between the distributions of tumor size at times 14 days and 19 days (FIGS. 12A-D and Tables 7-10). P-values given are for test comparing that column's control to the respective treatment, and are two-sided to account for the possibility of tumor size being systematically larger or smaller between treatment and control. As this is preliminary data, the p-values are not adjusted for multiple comparisons. Overall, there were few instances of significant differences between the distributions of a control and a treatment.
Immunocompetent Balb/c mice (5 mice/gp) of 6-8 weeks of age were immunized with 100 μg of peptide emulsified in Montanide ISA 720 (Seppic, Paris, France) and nor-MDP adjuvant (N-acetyl-glucosamine-3 yl-acetyl L-alanyl-D-isoglutamine). […]

[4] = test system: CD4+CD25+FoxP3+ Tregs; assay: Immune-profiling of T cells in spleen and tumor by flow cytometry; type: in vivo, Balb/c mice
Protocol: CD4 and CD8 cells were determined by flow cytometry (gated on CD45+CD3+ cells). Foxp3+CD25+CD4 T regulatory cells were determined by intracellular staining. All CD4 and CD8 T cells were gated on CD45+CD3+ cells. Tregs were gated on CD45+CD3+CD4+ cells. Group A=control peptide, Group B=32-50; Group C=45-64; Group D=73-90; Group E=92-110; Group F=α-mouse PD-1 (positive control).
The tumor and tumor draining lymph nodes were collected for subsequent FACS analysis to study the immune response in mice. Cells suspensions were prepared from tissues either by mechanistic dissociation or by enzymatic digestion. The stained cells were analyzed with a LSR II flow cytometer (BD Biosciences) equipped with 3 excitation lasers at wavelengths 405, 488 and 633 nm. CD8+ T cells and CD4+CD25+ T cells from tumor leucocytes were purified either on a MACS column or FACSAria.
Flow cytometric analysis was performed to evaluate the expression of surface markers (CD45, CD3, CD4, CD8 and CD25) and transcription factor FoxP3 in splenocytes and tumor infiltrating T cells. Briefly, spleens were removed from mice and pressed through cell strainers, followed by a short incubation with red blood cells lysis buffer to lyse the red blood cells. Cells were then collected, washed, and resuspended in staining buffer (1% BSA in PBS). Similarly, tumors were removed from mice and pressed through cell strainers, followed by one wash with 37% percoll. The tumor cells were then washed with PBS and resuspended in staining buffer. The splenocytes and tumor cells were incubated with mAbs to the cell-surface markers for 30 min at 4° C. After washing twice with staining buffer, cells were fixed and permeabilized using Cytofix/Cytoperm solution for 60 min at 4° C. Cells were stained for FoxP3 for 30 min at 4° C. 80,000-100,000 live cell events were acquired on a FACSCanto (BD) and analyzed using FlowJo software (Tree Star, Inc.). To differentiate infiltrating cells from tumor cells, the tumor cells were first gated on CD45+ cells. Then the CD3+CD4+ and CD3+CD8+ cells were analyzed. Tregs were represented by CD4+CD25+FoxP3+ cells. […] Group E had the lowest Treg.

[5] = test system: human IgG; assay: BIACORE SPR binding to immobilized human IgG; conditions: 1 μM injected 3 min at 10 μl/min
Protocol: 126. […] 1 μM BSA was used as the negative control. The chip was regenerated by 10 mM Glycine-HCl, pH 2.5(FIG. 3E).

Row | Substance | binding to immobilized rhPD-L1 (in words) [1] | binding to immobilized Nivolumab (in words) [2] | difference in tumor size distribution versus controls [3] | median tumor size LWH, Day 14 [3] [mm3] | median tumor size LWW, Day 14 [3] [mm3] | other results
1 | CH3CONH-GAISLAPKAQIKESLRAEL-CONH2 (Ac-GAISLAPKAQIKESLRAEL-NH2) [AC-PD-1 (92-110)] | bind | bind | – | – | – | –
2 | H2N-KLAAFPEDRSQPGQDCRFR-CONH2 (H-KLAAFPEDRSQPGQDCRFR-NH2) [PD-1 (45-64)] | second stronger binder | second stronger binder | – | – | – | –
3 | CH3CONH-KLAAFPEDRSQPGQDCRFR-CONH2 (Ac-KLAAFPEDRSQPGQDCRFR-NH2) [AC-PD-1 (45-64)] | bind | bind | – | – | – | –
4 | KLLSLIKGVIVHRLEGVE-GPSL-KLAAFPEDRSQPGQDCRFR-CONH2 (KLLSLIKGVIVHRLEGVEGPSLKLAAFPEDRSQPGQDCRFR-NH2) [MVF-PD-1 (45-64)] | bind | – | no significant differences | 448 | 550 | inhibition of tumor growth [3]: not inhibitory; Treg population in spleen compared to Group A (negative control) ([4]; splenocytes, FIG. 10A): increased Treg population; Tregs in tumor ([4]; tumor infiltrating cells, FIG. 10B): increased Treg development in tumor microenvironment; SPR response of peptide binding to immobilized rhPD-L1 [1]: around 110 RU
5 | KLLSLIKGVIVHRLEGVE-GPSL-VLNWYRMSPSNQTDKLAAF-CONH2 (KLLSLIKGVIVHRLEGVEGPSLVLNWYRMSPSNQTDKLAAF-NH2) [MVF-PD-1 (32-50)] | – | – | no significant differences | 420 | 486 | median terminal tumor weight [3]: 0.92 grams; median tumor size LWH, Day 19 [3]: 900 mm3; median tumor size LWW, Day 19 [3]: 1080 mm3; SPR response of peptide binding to immobilized Nivolumab [2]: 20 RU
6 | CH3CONH-DFHMSVVRARRNDSGTYL-CONH2 (Ac-DFHMSVVRARRNDSGTYL-NH2) [AC-PD-1 (73-90)] | bind | bind | – | – | – | –
7 | KLLSLIKGVIVHRLEGVE-GPSL-DFHMSVVRARRNDSGTYL-CONH2 (KLLSLIKGVIVHRLEGVEGPSLDFHMSVVRARRNDSGTYL-NH2) [MVF-PD-1 (73-90)] | bind | bind | no significant differences | 346.5 | 405 | inhibition of tumor growth [3]: not inhibitory; median terminal tumor weight [3]: 0.93 grams; median tumor size LWH, Day 19 [3]: 768 mm3; median tumor size LWW, Day 19 [3]: 968 mm3; SPR response of peptide binding to immobilized rhPD-L1 [1]: around 110 RU; SPR response of peptide binding to immobilized Nivolumab [2]: 1000 RU
8 | H2N-DFHMSVVRARRNDSGTYL-CONH2 (H-DFHMSVVRARRNDSGTYL-NH2) [PD-1 (73-90)] | much stronger binding | much stronger binding | – | – | – | –
9 | rhPD-1: recombinant human PD-1 (hPD-1) ectodomain used to validate the sensor chip | – | – | – | – | – | SPR response on immobilized human IgG (chip validation) [5]: didn't show any binding signal
